Laboratory results from article PMC12213745, “Compounds from Cyclocarya paliurus leaves inhibit binary division of methicillin-resistant Staphylococcus aureus by disrupting FtsZ dynamic” (Frontiers in Microbiology, 2025).
In brackets after ≈: the same amount, converted by molar mass. Like-named read-outs stand apart in the source and are kept apart here.

Columns and labels:
[1] = tested on: S. enterica subsp. Enterica (1.1114); experiment: MIC, broth microdilution (CLSI); format: cell-based, Salmonella enterica subsp. enterica; settings: Salmonella enterica
Description: (§1) Staphylococcus aureus ATCC25923 and Escherichia coli ATCC25922 were obtained from the American Type Culture Collection (ATCC, Manassas, VA, USA). The Methicillin-resistant S. aureus (MRSA) clinical isolate MRSA-4, previously confirmed as mecA-positive and characterized for its antibiotic resistance profile ([Sun et al., 2023]), was used in this study. Staphylococcus epidermidis (GDMCC 1.143), Enterococcus faecalis (GDMCC 1.164), and Salmonella enterica subsp. enterica (GDMCC 1.1114) were obtained from the Guangdong Microbial Culture Collection Center (GDMCC, Guangzhou, China). The Pseudomonas aeruginosa PA14 strain was kindly provided by Professor Min Wu (Southwest Medical University, China). All bacterial strains were routinely cultured in Mueller-Hinton broth (MHB) or Luria-Bertani (LB) broth medium at 37°C with shaking at 200 rpm. Vancomycin was purchased from Solarbio Science & Technology Co., Ltd. (Beijing, China), and oxacillin was obtained from Taiji Group Hengsheng Pharmaceutical Co., Ltd. (Chengdu, China). The polyclonal rabbit primary anti-body to FtsZ was purchased from Abcam PLC (Cambridge, UK). Alexa488-conjugated goat anti-rabbit IgG was purchased from ZSGB-BIO Biotechnology (Beijing, China). DAPI staining solution was purchased from Beyotime Biotechnology (Shanghai, China).
(§2) The minimum inhibitory concentrations (MICs) of the test compounds (AA, MA, and UA) were determined using the standard broth microdilution method in accordance with the Clinical and Laboratory Standards Institute (CLSI) guidelines ([Humphries et al., 2021]). Bacteria were cultured in MHB or LB broth at 37°C with shaking (200 rpm) to the logarithmic phase, then diluted to a final density of 1 × 10^6 CFU/mL. Test compounds (dissolved in DMSO) and positive controls (vancomycin and oxacillin) were diluted in MHB and serially twofold diluted in 96-well plates. Each well was inoculated with 100 μL of bacterial suspension (1 × 10^6 CFU/mL), yielding a final bacterial density of 5 × 10^5 CFU/mL and a total volume of 200 μL. The final concentrations tested were 128 to 1 μg/mL for AA, MA, and UA; 16 to 0.5 μg/mL for vancomycin; and 64 to 0.0625 μg/mL for oxacillin. DMSO was used as a solvent control. Plates were incubated statically at 37°C for 18–24 h. After incubation, the OD600 was measured using a microplate reader (SpectraMax i3x, Molecular Devices, CA, USA). The MIC was defined as the lowest compound concentration that caused ≥ 90% inhibition of bacterial growth compared to the drug-free growth control. All tests were performed in three independent biological replicates.
(§3) Following the isolation and identification of AA, MA, and UA from ECPL, we evaluated their antibacterial activity and spectrum. The MICs of the compounds were determined against MRSA-4, S. aureus ATCC25923, S. epidermidis, and E. faecalis (Gram-positive), as well as P. aeruginosa PA14, E. coli ATCC25922, and S. enterica subsp. Enterica (Gram-negative) using the standard broth microdilution method in accordance with CLSI guidelines ([Humphries et al., 2021]).

S. aureus ATCC25923 [2] = experiment: MIC, broth microdilution (CLSI); format: cell-based; settings: Staphylococcus aureus
Description: as §1, §2, §3

S. epidermidis (1.143) = experiment: MIC, broth microdilution (CLSI); format: cell-based; settings: Staphylococcus epidermidis
Description: as §1, §2, §3

E. faecalis = experiment: MIC, broth microdilution (CLSI); format: cell-based; settings: Enterococcus faecalis
Description: as §1, §2, §3

E. coli ATCC25922 = experiment: MIC, broth microdilution (CLSI); format: cell-based; settings: Escherichia coli
Description: as §1, §2, §3

P. aeruginosa PA14 = experiment: MIC, broth microdilution (CLSI); format: cell-based; settings: Pseudomonas aeruginosa
Description: as §1, §2, §3

MRSA-4 [3] = experiment: MIC, broth microdilution (CLSI); format: cell-based, Methicillin-resistant S. aureus; settings: Staphylococcus aureus
Description: as §1, §2, §3

MRSA-4 [4] = experiment: SEM analysis, cell long axis; format: cell-based, Methicillin-resistant S. aureus; settings: 2 × MIC, 2 h, mean ± SD, PBS control 0.53 ± 0.04
Protocol: (§4) Scanning electron microscopy (SEM) was used to observe the morphological changes in bacterial cells treated with the isolated compounds. S. aureus ATCC 25923 and MRSA-4 were grown in MHB to mid-log phase (OD600 = 0.4–0.6) as previously described. The bacteria cultures were treated with AA, MA, or UA at 2 × MIC for 2 h at 37°C with shaking at 150 rpm. Untreated cultures (PBS group) served as the growth control. After incubation, bacterial cells were harvested by centrifugation and washed three times with PBS (pH 7.2). Coverslips (8 mm diameter) were cleaned with absolute ethanol under ultrasonication, air-dried, immersed in 0.1% (w/v) chitosan solution (dissolved in 1% acetic acid) for 5 s, and air-dried again at room temperature ([Su et al., 2022]). A 25 μL aliquot of the washed bacterial suspension was added to each coverslip and allowed to adhere for 1 h at room temperature. Adhered cells were fixed with 1 mL of 2.5% (v/v) glutaraldehyde at 4°C overnight. Fixed samples were rinsed 2–3 times with PBS (5 min per rinse), then dehydrated through a graded ethanol series: 50, 70, and 90% ethanol (each once for 5 min), followed by 100% ethanol (three times for 5 min each). After dehydration, samples were air-dried overnight at room temperature. SEM imaging was performed using an EVO 10 scanning electron microscope (Zeiss, Jena, Germany). Cell long-axis statistical analysis was conducted using ImageJ software (Version 1.42q, National Institutes of Health, MD, USA).
(§5) Having established the antibacterial activity of AA, MA, and UA, we next examined their effects on bacterial morphology. We employed SEM to examine the alterations induced by these compounds in S. aureus ATCC25923 and MRSA-4. Bacterial cultures were treated with AA, MA, or UA at 2 × MIC for 2 h, while untreated (PBS group) cultures served as negative controls. […] In PBS groups, both S. aureus ATCC25923 and MRSA-4 maintained typical spherical morphology with smooth and intact surfaces.

MRSA-4 [5] = experiment: Time-dependent killing assay; format: cell-based, Methicillin-resistant S. aureus; settings: 2 × MIC
Protocol: An overnight culture of MRSA-4 was diluted 1:100 in fresh MHB and incubated at 37°C with shaking (200 rpm) until reaching mid-log phase (OD600 = 0.4–0.6). The culture was then adjusted to 1 × 10^6 CFU/mL and treated with AA, MA, or UA at concentrations of 1×, 2×, and 4 × MIC. 2 × MIC of vancomycin was used as a positive control, and an equivalent volume of DMSO served as the negative control. The cultures were incubated at 37°C with shaking (200 rpm) during the assay. At designated time points (0, 1, 2, 4, 8, and 24 h), samples were collected, serially diluted tenfold in sterile PBS, and 100 μL of appropriate dilutions were plated on LB agar. Plates were incubated at 37°C for 18–24 h, and viable bacteria were quantified. All experiments were performed in biological triplicates.
We next performed time-kill kinetics assays to characterize the time-dependent antibacterial effects of AA, MA, and UA against MRSA-4. Bacterial cultures were exposed to AA, MA, and UA at 1×, 2×, and 4 × their respective MICs, and viable CFU were counted at designated time points (0, 1, 2, 4, 8, and 24 h). As shown in the time-kill curves (Figure 1), treatment with 1 × or 2 × MIC of AA, MA, or UA led to an initial reduction in bacterial load within the first 2 h.

S. aureus ATCC25923 [6] = experiment: SEM analysis, cell long axis; format: cell-based, Staphylococcus aureus; settings: 2 × MIC, 2 h, mean ± SD, PBS control 0.52 ± 0.05
Protocol: as §4, §5

| Compound | MIC ([1]; S. enterica subsp. Enterica (1.1114), ≥ 90% growth inhibition, 18–24 h, read-out: MIC) | MIC (S. aureus ATCC25923 [2]; S. aureus ATCC25923, ≥ 90% growth inhibition, 18–24 h, read-out: MIC) | MIC (S. epidermidis (1.143); S. epidermidis (1.143), ≥ 90% growth inhibition, 18–24 h, read-out: MIC) | MIC (E. faecalis; E. faecalis, ≥ 90% growth inhibition, 18–24 h, read-out: MIC) | MIC (E. coli ATCC25922; E. coli ATCC25922, ≥ 90% growth inhibition, 18–24 h, read-out: MIC) | MIC (P. aeruginosa PA14; P. aeruginosa PA14, ≥ 90% growth inhibition, 18–24 h, read-out: MIC) | MIC (MRSA-4 [3]; MRSA-4, ≥ 90% growth inhibition, 18–24 h, read-out: MIC) | MIC [1] | length of long axis of cells (MRSA-4 [4]) | MIC (S. aureus ATCC25923 [2]; ATCC25923) | MIC (S. epidermidis (1.143)) | MIC (E. faecalis) | MIC (E. coli ATCC25922; ATCC25922) | MIC (P. aeruginosa PA14; PA14) | time to reduce bacterial counts below the detection limit (MRSA-4 [5]) | length of long axis of cells (S. aureus ATCC25923 [6]) | MIC (MRSA-4 [3]; MRSA) |
| --- | --- | --- | --- | --- | --- | --- | --- | --- | --- | --- | --- | --- | --- | --- | --- | --- | --- |
| Cc1onc(-c2ccccc2)c1C(=O)N[C@@H]1C(=O)N2[C@@H]1SC(C)(C)[C@@H]2C(=O)O [Oxa, Oxacillin, reference compound] | > 64 µg/mL | 0.125 µg/mL (≈ 0.311 µM) | 0.25 µg/mL (≈ 0.623 µM) | 8 µg/mL (≈ 19.9 µM) | > 64 µg/mL | > 64 µg/mL | 64 µg/mL (≈ 159 µM) | – | – | – | – | – | – | – | – | – | – |
| CN[C@H](CC(C)C)C(=O)N[C@H]1C(=O)N[C@@H](CC(N)=O)C(=O)N[C@H]2C(=O)N[C@H]3C(=O)N[C@H](C(=O)N[C@H](C(=O)O)c4cc(O)cc(O)c4-c4cc3ccc4O)[C@H](O)c3ccc(c(Cl)c3)Oc3cc2cc(c3O[C@@H]2O[C@H](CO)[C@@H](O)[C@H](O)[C@H]2O[C@H]2C[C@](C)(N)[C@H](O)[C@H](C)O2)Oc2ccc(cc2Cl)[C@H]1O [Van, Vancomycin, reference compound] | – | – | – | – | – | – | – | > 16 µg/mL | 0.57 ± 0.06 μm | 2 µg/mL (≈ 1.38 µM) | 2 µg/mL (≈ 1.38 µM) | 1 µg/mL (≈ 0.69 µM) | > 16 µg/mL | > 16 µg/mL | ≤ 8 h | 0.61 ± 0.06 μm | 2 µg/mL (≈ 1.38 µM) |
